Literature values in patent US20260345597A1, “LONG-ACTING AND SUSTAINED-RELEASE PREPARATION COMPOSITION OF LUMATEPERONE AND PREPARATION METHOD THEREOF” (SICHUAN KELUN PHARMACEUTICAL RESEARCH INSTITUTE CO., LTD., priority 2023, published 2026).

Tested on: patients with schizophrenia
Conditions: background

CN1CCN2c3c(cccc31)[C@@H]1CN(CCCC(=O)c3ccc(F)cc3)CC[C@@H]12 [lumateperone]
adverse reactions such as weight gain and abnormal lipid metabolism: less likely to cause adverse reactions such as weight gain and abnormal lipid metabolism | effect on symptoms of schizophrenia (patients with schizophrenia): alleviating positive symptoms while improving negative symptoms, depressive symptoms, and social functioning | safety and tolerability profile (patients with schizophrenia): superior safety and tolerability profiles
